Where two headings read alike, the source gives them in different places.
Molecular target: T1, androgen receptor (Homo sapiens, UniProt P10275, T878A)
T1 construct: host or cells: LNCaP.FGC
Test: Androgen receptor degradation assay using Western blot analysis
Type: cell-based
Description: Cells not treated with any of the above-mentioned compounds are used as a negative control.
The internal loading control GAPDH was detected using a mouse monoclonal antibody (1:5000) (GTX627408, GeneTex International Corp., HsinChu City, Taiwan R.O.C.) and a goat anti-mouse HRP-conjugated secondary antibody (1:5000 dilution) (C04001, Croyez Bioscience Co., Ltd., Taipei City, Taiwan R.O.C.).
AR remaining percentage was determined by the intensity difference of AR signals (each was normalized by the corresponding internal loading control GAPDH) between the protein samples from the untreated cells (100%) and those from the treated cells. “Cpd. #” indicates the compound number hereinabove.
In addition, several compounds were selected to prepare a treatment stock solutions at 100 nM in RPMI medium. The treatment stock solutions were separately serially diluted (10×) with RPMI medium for treating LNCaP.FGC cells seeded with 2×10^5 cells per well in 24-well tissue culture plates. A calibration curve was determined by the serial diluted samples for each compound, and the concentration needed for 50% AR degradation (AR DC50) for each compound was calculated.

[1] = 24 h, LNCaP.FGC cells, 100 nM, 24 hr, normalized to GAPDH, untreated cells = 100%; read-out: Androgen Receptor Remaining (%)
[2] = LNCaP.FGC cells, serial 10x dilutions from 100 nM; read-out: AR DC50 (concentration needed for 50% AR degradation)
[3] = 24 h, read-out: Androgen Receptor Remaining (%), LNCaP.FGC cells, 100 nM, 24 hr, normalized to GAPDH, untreated cells = 100%
[4] = LNCaP.FGC cells, 100 nM, 24 hr, normalized to GAPDH, untreated cells = 100%

T1 sequence (P10275 whole entry T878A): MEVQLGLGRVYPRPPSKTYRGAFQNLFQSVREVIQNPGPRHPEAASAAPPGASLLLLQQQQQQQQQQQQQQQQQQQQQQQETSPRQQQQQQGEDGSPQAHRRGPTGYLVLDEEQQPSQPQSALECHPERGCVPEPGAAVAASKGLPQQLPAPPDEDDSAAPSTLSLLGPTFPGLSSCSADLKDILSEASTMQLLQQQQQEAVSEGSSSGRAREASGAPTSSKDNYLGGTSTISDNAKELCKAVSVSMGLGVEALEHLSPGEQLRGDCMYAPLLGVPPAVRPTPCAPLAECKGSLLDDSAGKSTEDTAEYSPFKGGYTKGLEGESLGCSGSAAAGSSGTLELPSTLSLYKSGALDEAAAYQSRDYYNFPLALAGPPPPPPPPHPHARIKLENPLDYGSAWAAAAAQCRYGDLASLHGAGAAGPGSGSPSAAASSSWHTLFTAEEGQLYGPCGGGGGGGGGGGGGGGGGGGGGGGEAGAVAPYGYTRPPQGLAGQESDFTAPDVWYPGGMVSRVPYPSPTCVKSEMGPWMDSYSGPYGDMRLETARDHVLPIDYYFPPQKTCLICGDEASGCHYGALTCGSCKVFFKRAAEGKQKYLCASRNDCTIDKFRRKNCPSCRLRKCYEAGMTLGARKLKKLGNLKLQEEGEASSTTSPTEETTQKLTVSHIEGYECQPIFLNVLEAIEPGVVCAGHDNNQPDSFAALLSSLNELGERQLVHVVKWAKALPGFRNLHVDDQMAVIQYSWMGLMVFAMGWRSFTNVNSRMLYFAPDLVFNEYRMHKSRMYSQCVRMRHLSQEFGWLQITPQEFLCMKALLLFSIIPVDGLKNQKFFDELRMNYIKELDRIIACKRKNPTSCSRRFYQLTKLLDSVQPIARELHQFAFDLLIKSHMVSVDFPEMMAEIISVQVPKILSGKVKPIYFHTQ
T1 sequence (Q96SW2 whole entry partner): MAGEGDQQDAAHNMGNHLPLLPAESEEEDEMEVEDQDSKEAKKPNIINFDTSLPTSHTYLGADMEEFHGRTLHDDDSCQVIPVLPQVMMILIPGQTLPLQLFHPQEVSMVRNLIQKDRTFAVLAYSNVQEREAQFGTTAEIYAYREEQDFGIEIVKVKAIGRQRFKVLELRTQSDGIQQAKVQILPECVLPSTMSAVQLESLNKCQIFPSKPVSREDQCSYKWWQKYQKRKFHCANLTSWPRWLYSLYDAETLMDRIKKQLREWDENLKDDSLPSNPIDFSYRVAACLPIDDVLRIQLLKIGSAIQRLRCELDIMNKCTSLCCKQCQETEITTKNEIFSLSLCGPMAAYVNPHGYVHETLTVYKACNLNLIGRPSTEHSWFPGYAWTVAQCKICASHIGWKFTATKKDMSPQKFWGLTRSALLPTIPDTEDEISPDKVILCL

| SMILES | remaining activity at 0.1 µM [1] | remaining activity at 0.1 µM [3] | further results |
| --- | --- | --- | --- |
| Cn1c2c(c3ccc(OCCN4CCN(c5ccc(C(=O)N[C@H]6C(C)(C)[C@H](Oc7ccc(C#N)c(Cl)c7)C6(C)C)cc5)CC4)cc31)C(=O)N(C1CCC(=O)NC1=O)C2=O (stereo partly shown) [Compound 1] | 47% |  | DC50 [2]: 10 to 25 nM |
| CCn1c2c(c3ccc(OCCC4CCN(c5ccc(C(=O)N[C@H]6CC[C@H](Oc7ccc(C#N)c(Cl)c7)CC6)nn5)CC4)cc31)C(=O)N(C1CCC(=O)NC1=O)C2=O (stereo partly shown) [Compound 2] |  | 56% |  |
| Cn1c2c(c3ccc(OCCN4CCN(c5ccc(C(=O)N[C@H]6CC[C@H](Oc7ccc(C#N)c(Cl)c7)CC6)nn5)CC4)cc31)C(=O)N(C1CCC(=O)NC1=O)C2=O (stereo partly shown) [Compound 3] | 32% |  | DC50 [2]: 25 to 100 nM |
| CCn1c2c(c3cc(OCCN4CCN(c5ccc(C(=O)N[C@H]6C(C)(C)[C@H](Oc7ccc(C#N)c(Cl)c7)C6(C)C)cc5)CC4)ccc31)C(=O)N(C1CCC(=O)NC1=O)C2=O (stereo partly shown) [Compound 4] |  | 66% |  |
| CCn1c2c(c3cc(OCCN4CCN(c5ccc(C(=O)N[C@H]6C(C)(C)[C@H](Oc7ccc(C#N)c(Cl)c7)C6(C)C)cn5)CC4)ccc31)C(=O)N(C1CCC(=O)NC1=O)C2=O (stereo partly shown) [Compound 5] |  | 51% |  |
| Cn1c2c(c3ccc(OCCN4CCN(c5ccc(C(=O)N[C@H]6C(C)(C)[C@H](Oc7ccc(C#N)c(Cl)c7)C6(C)C)cn5)CC4)cc31)C(=O)N(C1CCC(=O)NC1=O)C2=O (stereo partly shown) [Compound 6] | 31% |  | DC50 [2]: 25 to 100 nM |
| CC1(C)[C@H](NC(=O)c2ccc(N3CCN(CCOc4ccc5c6c(sc5c4)C(=O)N(C4CCC(=O)NC4=O)C6=O)CC3)cn2)C(C)(C)[C@H]1Oc1ccc(C#N)c(Cl)c1 (stereo partly shown) [Compound 7] |  |  | Androgen Receptor Remaining (%) [4]: 45%; DC50 [2]: 25 to 100 nM |
| Cn1c2c(c3ccc(OCCCN4CCN(c5ccc(C(=O)N[C@H]6C(C)(C)[C@H](Oc7ccc(C#N)c(Cl)c7)C6(C)C)cn5)CC4)cc31)C(=O)N(C1CCC(=O)NC1=O)C2=O (stereo partly shown) [Compound 8] | 22% |  | DC50 [2]: 10 to 25 nM |
| Cn1c2c(c3ccc(OCCN4CCN(c5ccc(C(=O)N[C@H]6C(C)(C)[C@H](Oc7ccc(C#N)c(Cl)c7)C6(C)C)nc5)CC4)cc31)C(=O)N(C1CCC(=O)NC1=O)C2=O (stereo partly shown) [Compound 9] | 73% |  | DC50 [2]: > 100 nM |
| Cn1c2c(c3cc(OCCN4CCN(c5ccc(C(=O)N[C@H]6C(C)(C)[C@H](Oc7ccc(C#N)c(Cl)c7)C6(C)C)nc5)CC4)ccc31)C(=O)N(C1CCC(=O)NC1=O)C2=O (stereo partly shown) [Compound 10] | 37% |  | DC50 [2]: 25 to 100 nM |
| Cn1c2c(c3ccc(OCCCN4CCN(c5ccc(C(=O)N[C@H]6C(C)(C)[C@H](Oc7ccc(C#N)c(Cl)c7)C6(C)C)nc5)CC4)cc31)C(=O)N(C1CCC(=O)NC1=O)C2=O (stereo partly shown) [Compound 11] | 73% |  |  |
| Cn1c2c(c3ccc(OCCCN4CCN(c5ccc(C(=O)N[C@H]6C(C)(C)[C@H](Oc7ccc(C#N)c(Cl)c7)C6(C)C)cc5)CC4)cc31)C(=O)N(C1CCC(=O)NC1=O)C2=O (stereo partly shown) [Compound 12] | 42% |  | DC50 [2]: 25 to 100 nM |
| CC(C)n1c2c(c3cc(OCCN4CCN(c5ccc(C(=O)N[C@H]6C(C)(C)[C@H](Oc7ccc(C#N)c(Cl)c7)C6(C)C)nc5)CC4)ccc31)C(=O)N(C1CCC(=O)NC1=O)C2=O (stereo partly shown) [Compound 13] |  | 155% |  |
| CC1(C)[C@H](NC(=O)c2ccc(N3CCN(CCCOc4ccc5c6c(sc5c4)C(=O)N(C4CCC(=O)NC4=O)C6=O)CC3)cn2)C(C)(C)[C@H]1Oc1ccc(C#N)c(Cl)c1 (stereo partly shown) [Compound 14] | 70% |  |  |
| Cn1c2c(c3cc(OCCN4CCN(c5ccc(C(=O)N[C@H]6C(C)(C)[C@H](Oc7ccc(C#N)c(Cl)c7)C6(C)C)cc5)CC4)ccc31)C(=O)N(C1CCC(=O)NC1=O)C2=O (stereo partly shown) [Compound 15] | 106% |  |  |
| CC(C)n1c2c(c3cc(OCCN4CCN(c5ccc(C(=O)N[C@H]6C(C)(C)[C@H](Oc7ccc(C#N)c(Cl)c7)C6(C)C)cn5)CC4)ccc31)C(=O)N(C1CCC(=O)NC1=O)C2=O (stereo partly shown) [Compound 16] |  | 96% |  |

| SMILES | remaining activity at 0.1 µM [1] | remaining activity at 0.1 µM [3] | further results |
| --- | --- | --- | --- |
| CC(C)n1c2c(c3cc(OCCN4CCN(c5ccc(C(=O)N[C@H]6C(C)(C)[C@H](Oc7ccc(C#N)c(Cl)c7)C6(C)C)cc5)CC4)ccc31)C(=O)N(C1CCC(=O)NC1=O)C2=O (stereo partly shown) [Compound 17] |  | 127% |  |
| CC1(C)[C@H](NC(=O)c2ccc(N3CCN(CCOc4ccc5c6c(sc5c4)C(=O)N(C4CCC(=O)NC4=O)C6=O)CC3)cn2)C(C)(C)[C@H]1Oc1ccc(C#N)c(Cl)c1 (stereo partly shown) [Compound 18] |  |  | Androgen Receptor Remaining (%) [4]: 99% |
| Cn1c2c(c3cc(OCCN4CCN(c5ccc(C(=O)N[C@H]6C(C)(C)[C@H](Oc7ccc(C#N)c(Cl)c7)C6(C)C)cn5)CC4)ccc31)C(=O)N(C1CCC(=O)NC1=O)C2=O (stereo partly shown) [Compound 19] | 73% |  |  |
| CCn1c2c(c3ccc(OCCCN4CCN(c5ccc(C(=O)N[C@H]6C(C)(C)[C@H](Oc7ccc(C#N)c(Cl)c7)C6(C)C)cn5)CC4)cc31)C(=O)N(C1CCC(=O)NC1=O)C2=O (stereo partly shown) [Compound 20] |  | 63% |  |
| CCn1c2c(c3ccc(OCCCN4CCN(c5ccc(C(=O)N[C@H]6C(C)(C)[C@H](Oc7ccc(C#N)c(Cl)c7)C6(C)C)cc5)CC4)cc31)C(=O)N(C1CCC(=O)NC1=O)C2=O (stereo partly shown) [Compound 21] |  | 92% |  |
| CCCn1c2c(c3ccc(OCCCN4CCN(c5ccc(C(=O)N[C@H]6C(C)(C)[C@H](Oc7ccc(C#N)c(Cl)c7)C6(C)C)cn5)CC4)cc31)C(=O)N(C1CCC(=O)NC1=O)C2=O (stereo partly shown) [Compound 22] |  | 89% |  |
| CCCn1c2c(c3ccc(OCCCN4CCN(c5ccc(C(=O)N[C@H]6C(C)(C)[C@H](Oc7ccc(C#N)c(Cl)c7)C6(C)C)cc5)CC4)cc31)C(=O)N(C1CCC(=O)NC1=O)C2=O (stereo partly shown) [Compound 23] |  | 88% |  |
| Cn1c2c(c3cccc(OCCCN4CCN(c5ccc(C(=O)N[C@H]6C(C)(C)[C@H](Oc7ccc(C#N)c(Cl)c7)C6(C)C)cn5)CC4)c31)C(=O)N(C1CCC(=O)NC1=O)C2=O (stereo partly shown) [Compound 24] | 62% |  |  |
| Cn1c2c(c3cccc(OCCCN4CCN(c5ccc(C(=O)N[C@H]6C(C)(C)[C@H](Oc7ccc(C#N)c(Cl)c7)C6(C)C)cc5)CC4)c31)C(=O)N(C1CCC(=O)NC1=O)C2=O (stereo partly shown) [Compound 25] | 80% |  |  |
| CCn1c2c(c3ccc(OCCCN4CCN(c5ccc(C(=O)N[C@H]6CC[C@H](Oc7ccc(C#N)c(Cl)c7)CC6)cn5)CC4)cc31)C(=O)N(C1CCC(=O)NC1=O)C2=O (stereo partly shown) [Compound 26] |  | 75% |  |
| CCn1c2c(c3ccc(OCCCN4CCN(c5ccc(C(=O)N[C@H]6CC[C@H](Oc7ccc(C#N)c(Cl)c7)CC6)cc5)CC4)cc31)C(=O)N(C1CCC(=O)NC1=O)C2=O (stereo partly shown) [Compound 27] |  | 107% |  |
| Cn1c2c(c3ccc(OC4CCN(CC5CCN(c6ncc(C(=O)N[C@H]7CC[C@H](Oc8ccc(C#N)c(Cl)c8)CC7)cn6)CC5)CC4)cc31)C(=O)N(C1CCC(=O)NC1=O)C2=O (stereo partly shown) [Compound 28] |  |  | DC50 [2]: 25 to 100 nM |
| CCn1c2c(c3ccc(OCCN4CCN(c5ccc(C(=O)N[C@H]6C(C)(C)[C@H](Oc7ccc(C#N)c(Cl)c7)C6(C)C)cc5)CC4)cc31)C(=O)N(C1CCC(=O)NC1=O)C2=O (stereo partly shown) [Compound 30] |  | 56% |  |
| CCn1c2c(c3ccc(OCCN4CCN(c5ccc(C(=O)N[C@H]6CC[C@H](Oc7ccc(C#N)c(Cl)c7)CC6)cn5)CC4)cc31)C(=O)N(C1CCC(=O)NC1=O)C2=O (stereo partly shown) [Compound 31] |  | 47% | DC50 (read-out: AR DC50 (concentration needed for 50% AR degradation); LNCaP.FGC cells, serial 10x dilutions from 100 nM): 25 to 100 nM |
| CCn1c2c(c3ccc(OCCN4CCN(c5ccc(C(=O)N[C@H]6CC[C@H](Oc7ccc(C#N)c(Cl)c7)CC6)cc5)CC4)cc31)C(=O)N(C1CCC(=O)NC1=O)C2=O (stereo partly shown) [Compound 32] |  | 59% |  |

Source: US20250197409A1, “BIFUNCTIONAL COMPOUND AND PHARMACEUTICAL COMPOSITION COMPRISING THE BIFUNCTIONAL COMPOUND, AND METHOD FOR TREATING ANDROGEN RECEPTOR RELATED DISEASE BY USING THE SAME” (ANHORN MEDICINES CO., LTD., priority 2022, published 2025)
